# Reference: patent publication US20250177303A1, “A DRUG NANOCARRIER SYSTEM TO DELIVER A COMBINATION OF TLR AGONISTS AND/OR A LIPOXIN PLUS IMMUNOGENIC CELL DEATH INDUCING CHEMOTHERAPEUTIC AGENTS FOR CANCER IMMUNOTHERAPY” (The Regents of the University of California, priority 2022, published 2025)
# “Also recorded” adds a separate entry of the source.
# What was measured:
# TGF-β activated hPSCs = experiment: IL-6 secretion from TGF-β activated human pancreatic stellate cells (ELISA); type: cell-based; settings: 1-100 nM LXA4, 48 h, TGF-β 20 ng/mL
# Method: HPaSteCs were seeded at 2500 cells/well in a 96-well plate and activated with TGF-p (20 ng/mL) overnight. The next day, hPSCs were treated with 1-100 nM of LXA4 in free and liposomal form. After 48 h of incubation, the supernatant was collected and analysed for IL-6 secretion with ELISA. […] A possible explanation is provided by the schematic in FIG. 11, panel A.
# [1] = cited from earlier work
# [2] = test system: murine bone marrow-derived dendritic cells (BMDCs); experiment: BMDC activation (flow cytometry, IL-12p40 and TNF-α ELISA); type: cell-based; settings: 10 μM, 21 h
# Method: (§1) Having confirmed effective intracellular delivery of TLR7 activation, the next task was to determine the effect of the 3M-silicasome in the ex vivo activation of macrophages and DCs. These assays were performed in RAW264.7 macrophages and murine bone marrow-derived dendritic cells (BMDCs). RAW264.7 and BMDCs were treated with 10 μM each of R848 (positive control), free 3M-052, or the 3M-silicasome for 21 hours before assessing CD80 expression (FIG. 16, panels C and E). […] We also quantified the release of two key pro-inflammatory cytokines, IL-12p40 and TNF-α by ELISA in the same cell types, using similar stimuli.
# Bone marrow-derived dendritic cells (BMDCs) were prepared according to our established procedure, with a slight modification.^[42] Bone marrow cells flushed from the femur and tibia of B6/129 mice were collected and red blood cells were lysed by incubating in ACK Lysing Buffer. […]
# (§2) For flow cytometry analysis of surface markers, cells were washed with cell staining buffer, before staining RAW264.7 cells with anti-CD80 or BMDCs with FITC-conjugated anti-CD11c and anti-CD80 on ice, according to the manufacturer's instructions. The assessment of the differentiation and activation markers were evaluated by flow cytometry (LSRFortessa; BD Biosciences), analyzed by FlowJo software.
# [3] = test system: LN-resident dendritic cells (LN-DCs); experiment: Subcutaneous KPC tumor model, flow cytometry of inguinal lymph node dendritic cells; type: in vivo, B6129SF1/J mice; settings: inguinal lymph nodes
# Text: Subcutaneous tumor implantation in the rear animal flank allows lymphatic drainage to the regional inguinal lymph nodes (LNs), which were harvested to assess therapeutic impact on LN-resident dendritic cells (LN-DCs). This reasoning is premised on the possibility that LN participation in the cancer immunity cycle may be able to strengthen the ICD response by increasing recruitment of newly-activated cytotoxic T-cells back to the principal tumor site. Following inguinal LN harvesting and cellular release, initial flow cytometry gating selected singlet live cells (FIG. 26). Further gating on the CD11c^+/CD45^+ DC subset was used to quantify CD80 and CD86 expression, representative of the surface receptors on an activated DC subset, participating in T-cell activation. […] We also obtained evidence that the response boosting involves LNDC participation as a key component of the cancer immunity cycle.
# Following animal sacrifice, photographs were obtained of the harvested tumors, which were subsequently fixed in 10% formalin for IHC staining by the UCLA Translational Pathology Core Laboratory. Image processing was performed using Aperio ImageScope software (Leica). IHC analysis was performed to assess tumor staining intensity for CD8 and FoxP3. Additionally, we assessed the immune response in the draining inguinal lymph nodes (LNs) harvested from the sacrificed animals. […]
# RAW264.7 macrophages = experiment: RAW264.7 macrophage activation (CD80 flow cytometry, IL-12p40 and TNF-α ELISA); type: cell-based, murine; settings: RAW264.7, 10 μM, 21 h
# Method: as §1
# RAW264.7 cells (1×10^5 cells/well) were cultured in 48-well plates for 24 h, before the addition of PBS or 10 μM concentrations of R848, free 3M-052 or the 3M-silicasome for a further 21 h. Immature BMDCs (5×10^5 cells/well) were cultured in 24-well plates, receiving the same dose of R848, free 3M-052, and 3M-silicasome for 21 h. […]
# as §2
# [4] = Pharmacokinetics of 3M-052 and IRIN in plasma (HPLC); type: in vivo, healthy B6129SF1/J mice; settings: single IV, 3M-052 2 mg/kg, IRIN 40 mg/kg
# Method: Free 3M-052 and IRIN were extracted by methanol and measured by HPLC.
# The harvested tumor and organ samples, collected in the drug biodistribution experiment, were weighed and homogenized. The collected plasma, tumor, and organ homogenates were extracted in methanol, using 1:5, 1:4, and 1:3 v/v dilutions, respectively. The extracts were vortexed for 20 s and centrifuged at 13000 rpm for 10 min, following which the drug-containing supernatants were filtrated through 0.22 μm filters to perform HPLC analysis. The HPLC system is operated by a Knauer Smartline Pneumatic Pump, C18 column, K-2600 spectrophotometer, and Gina data acquisition software. The mobile phase consisted of mobile phase A (0.01% trifluoroacetic acid in water) and mobile phase B (0.01% trifluoroacetic acid in methanol) as 70% A and 30% B (v/v). A 20 μL of the sample was injected to measure the 3M-052 and IRIN absorptions at 320 and 360 nm. The 3M-052 and IRIN standard curves were generated over the maximal concentrations of 40 and 100 μg/mL respectively.
# subcutaneous KPC tumor [5] = experiment: Subcutaneous KPC tumor model, tumor growth (3M-052/IRIN carriers); settings: for Inhibition of tumor growth compared to saline: day 20, p<0.001
# Method: The schematic in FIG. 6, panel A depicts the treatment outline for conducting the subcutaneous KPC tumor experiment. […] Tumor-bearing mice were randomly divided into 5 groups (n=6 or 7), which received IV administration of the different treatment modalities, every 3-4 days on 4 occasions. […] IRIN was administered at 40 mg/kg while the 3M-052 dose was delivered at 2 mg/kg. FIG. 6, panel B, depicts the average subcutaneous KPC tumor growth kinetics, as determined by tumor volume. Tumor size was measured every 2 days, and tumor volume was calculated by the formula: tumor volume (mm^3)=(length in mm)×(width in mm)^2/2.
# KPC cells were subcutaneously injected into the right flank of female B6129SF1/J mice for in vivo experimentation. […] Subcutaneous tumor sizes were monitored every 2 days.
# [6] = Subcutaneous KPC tumor model, body weight and blood parameters (safety); type: in vivo, B6129SF1/J mice; settings: blood on day 21, 4 IV injections, 3M-052 2 mg/kg, IRIN 40 mg/kg
# Method: Table 10. A subcutaneous KPC tumor model was established in B6129SF1/J mice. […] Blood was collected from the sacrificed animals on day 21. The biochemical parameters were assayed by UCLA Division of Laboratory Animal Medicine (DLAM) diagnostic laboratory services. These parameters include white blood cell (WBC), alkaline phosphatase (ALP), aspartate aminotransferase (AST), alanine aminotransferase (ALT), blood urea nitrogen (BUN), creatinine, calcium, and phosphorus.
# A subcutaneous KPC tumor model was established in immunocompetent B6129SF1/J mice, using protocols approved by the UCLA Animal Research Committee. Briefly, 100 μL of a DMEM/Matrigel (1:1 v/v) suspension, containing 1×10^6 KPC cells, was subcutaneously injected into the right flank of female B6129SF1/J mice, 8-10 weeks old. […] Injections were given every 3-4 days, using the dosing schedule that delivers the equivalent of 2 mg/kg and 40 mg/kg, respectively, for 3M-052 and IRIN. Subcutaneous KPC tumor size and animal weight were monitored every 2 days. The tumor size was calculated according to the formula: (Width^2×Length)/2.
# We also collected blood for separating serum after centrifugation at 3500 rpm for 20 min. The following biochemical parameters were assayed by UCLA Division of Laboratory Animal Medicine (DLAM) diagnostic laboratory services: white blood cell (WBC), alkaline phosphatase (ALP), aspartate aminotransferase (AST), alanine aminotransferase (ALT), blood urea nitrogen (BUN), creatinine, calcium, and phosphorus.
# orthotopic KPC-luc tumor = experiment: Orthotopic KPC-luc tumor model, efficacy (IVIS bioluminescence, tumor weight, metastasis); type: in vivo, B6129SF1/J mice
# Method: FIG. 8, panel A, depicts the experimental outline of the study conducted by orthotopic implantation KPC-luc tumor cells in the pancreatic tail of syngeneic mice. In brief, 50 μL of PBS/Matrigel (6:4 v/v), containing 0.8×10^6 KPC-luc cells was orthotopically injected into the tail of the pancreas of female B6129SF1/J mice 8 days before the onset of treatment. […] FIG. 8, panel C depicts the average quantitative tumor bioluminescence in each group at day 21, as calculated by IVIS software. **p<0.01.
# Mice were sacrificed on day 21. FIG. 8, panel D, depicts the IVIS imaging performed on the ex vivo explanted tumor tissues and potential metastatic organs on day 21. […] FIG. 8, panel G depicts animal body weights over a time period of 21 days.
# 50 μL of a DMEM/Matrigel (6:4 v/v) suspension, containing 8×10^5 KPC-luc cells, was injected into the tail of the pancreas in female B6129SF1/J mice by a survival surgery procedure. […] The dose equivalents of 3M-052 and IRIN were 2 mg/kg and 40 mg/kg per dose, respectively. Animal weight was monitored every 2 days.
# To perform the bioluminescence imaging of the luciferase-expressing tumors, mice were injected intraperitoneal with 50 mg/kg D-Luciferin on day 7, 15, 18, and 21. Ex vivo IVIS images of tumors and major organs, collected from sacrificed animals, were obtained on day 21. In addition, we also obtained photographs and weighed the harvested tumors, which were subsequently fixed in 10% formalin for the performance of IHC staining.
# KPC cells = experiment: In vitro killing of KPC cells, CCK-8 assay; type: cell-based, murine; settings: 50-500 μM IRIN, 48 h
# Method: 20 μL of CCK-8 solution was added to each well and the plates were incubated for an additional 1-2 h in an incubator. The absorbance of each well was assessed at 450 nm in a microplate reader. Cytotoxicity (% dead cells) was calculated using the formula: (ODsample−ODblank)/(ODcontrol−ODblank)×100.
# subcutaneous KPC tumor [7] = experiment: IHC of T lymphocytes and perforin in KPC tumors (lipo-LXA4-IRIN study); type: in vivo, B6129SF1/J mice; settings: normalized over no treatment control
structure (smiles),measurement,setting,value
"CCCCC[C@H](O)/C=C/C=C\C=C\C=C\[C@@H](O)[C@@H](O)CCCC(=O)O [LXA4, lipoxin A4]",IL-6 release,TGF-β activated hPSCs,significantly inhibited IL-6 release in a concentration-dependent manner
CC(=O)O[C@@]12CO[C@@H]1C[C@H](O)[C@@]1(C)C(=O)[C@H](O)C3=C(C)[C@@H](OC(=O)[C@H](O)[C@@H](NC(=O)OC(C)(C)C)c4ccccc4)C[C@@](O)([C@@H](OC(=O)c4ccccc4)[C@H]21)C3(C)C [docetaxel],Ethanol solubility,[1],~100 mg/mL
"CCCCCCCCCCCCCCCCCC(=O)NCCCCOn1c(CCCC)nc2c(N)nc3ccccc3c21 [free 3M-052, Telratolimod]",CD80 cell surface expression,[2],significant increase in cell surface expression of a maturation marker
same,IL-12p40 and TNF-α release,[2]; ELISA,higher responses
same,CD80 and CD86 expression in CD11c+/CD45+ population,[3]; 4 rounds of treatment,up-regulated
same,Percentage of CD45+/CD11c+ LN-DCs,"[3]; day 21, compared to saline and free IRIN",increase in the percentage of CD45^+/CD11c^+ LN-DCs
same,CD80 cell surface expression,RAW264.7 macrophages,significant increase in cell surface expression of a maturation marker
same,IL-12p40 and TNF-α release,RAW264.7 macrophages; ELISA,higher responses
same,Clearance from the blood circulation,[4],rapidly cleared
same,Effect on tumor volume growth,"subcutaneous KPC tumor [5]; IV every 3-4 days x4, 3M-052 2 mg/kg, IRIN 40 mg/kg",modest effects
same,Inhibition of tumor growth compared to saline,subcutaneous KPC tumor [5],statistically significant compared to the saline control
same,Inhibition of tumor growth compared between treatments,"subcutaneous KPC tumor [5]; tumor volume, comparison among treatment groups",significantly reduced compared to treatment with single-drug or dual-drug silicasomes
same,ALP,[6],64.3 ± 7.6 U/L
same,ALT,[6],32.3 ± 11.9 U/L
same,AST,[6],95.0 ± 14.0 U/L
same,BUN,[6],16.0 ± 2.0 mg/dL
same,Calcium,[6],8.7 ± 0.2 mg/dL
same,Creatinine,[6],0.0 ± 0.0 mg/dL
same,Phosphorous,[6],7.2 ± 1.3 mg/dL
same,WBC,[6],3.5 ± 0.1 10^3/μL
"CCc1c2c(nc3ccc(OC(=O)N4CCC(N5CCCCC5)CC4)cc13)-c1cc3c(c(=O)n1C2)COC(=O)[C@]3(O)CC [free IRIN, Irinotecan]",Tumor bioluminescence intensity,"orthotopic KPC-luc tumor; day 21, IV every 3 days x4, compared to saline or free IRIN",little effect on orthotopic tumors
same,Metastatic spread to surrounding organs,"orthotopic KPC-luc tumor; ex vivo IVIS imaging, day 21",same metastatic burden; also recorded: evidence for splenic involvement
same,Cytotoxicity to KPC cells,KPC cells,"dose-dependent cytotoxicity, with a steeper decline in viability"
same,Inhibition of tumor growth compared to saline,subcutaneous KPC tumor [5],statistically significant compared to the saline control
same,Perforin signal,subcutaneous KPC tumor [7],increase in the perforin levels compared to the no-treatment control
same,ALP,[6],91.0 ± 1.7 U/L
same,AST,[6],66.3 ± 22.2 U/L
same,BUN,[6],17.0 ± 1.0 mg/dL
same,Calcium,[6],8.9 ± 0.1 mg/dL
same,Creatinine,[6],0.0 ± 0.1 mg/dL
same,Phosphorous,[6],7.4 ± 0.5 mg/dL
same,WBC,[6],3.9 ± 0.5 10^3/μL
O=C1c2c(O)ccc(O)c2C(=O)c2c(NCCNCCO)ccc(NCCNCCO)c21 [mitoxantrone],Water solubility,[1]; drugbank,89 mg/mL
